Reference: patent EP4631938A1, “NITROGEN-CONTAINING HETEROCYCLE WITH SEROTONIN RECEPTOR-BINDING ACTIVITY AND CARBOCYCLIC DERIVATIVE” (Shionogi & Co., Ltd, priority 2022, dated 2024)

Tests used:
[1] = biological target: T1, human recombinant 5-HT2A receptor (Homo sapiens, UniProt P28223); experiment: Test Example 1-2: 5-HT2A receptor binding inhibition test ([3H]-Ketanserin; non-specific ligand Ketanserin); settings: [3H]-Ketanserin; non-specific binding with 500 µmol/L Ketanserin; room temperature (25°C), 1.5 hours; read-out: h 5-HT2A Ki
T1 construct: expressed in transfected cells; host or cells: Jump-In HEK cells (membrane preparation)
T1 sequence (P28223 whole entry): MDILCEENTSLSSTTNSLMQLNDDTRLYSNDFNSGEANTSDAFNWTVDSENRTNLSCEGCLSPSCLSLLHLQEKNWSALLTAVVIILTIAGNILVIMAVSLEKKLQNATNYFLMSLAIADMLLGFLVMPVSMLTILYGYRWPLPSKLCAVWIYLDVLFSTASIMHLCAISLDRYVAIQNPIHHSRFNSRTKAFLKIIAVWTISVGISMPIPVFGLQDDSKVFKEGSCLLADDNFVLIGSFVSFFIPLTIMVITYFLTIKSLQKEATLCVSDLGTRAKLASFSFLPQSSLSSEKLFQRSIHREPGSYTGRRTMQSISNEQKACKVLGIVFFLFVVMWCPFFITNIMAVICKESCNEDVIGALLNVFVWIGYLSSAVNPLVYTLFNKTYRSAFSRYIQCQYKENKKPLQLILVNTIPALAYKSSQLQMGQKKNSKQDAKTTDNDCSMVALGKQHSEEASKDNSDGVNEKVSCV
Method in brief: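 Membranes expressing the receptor were incubated with [3H]-ketanserin and compound for 1.5 h at 25 °C, then filtered onto plates presoaked in 50 mmol/L Tris-HCl pH 7.4 and scintillation-counted. Non-specific binding was defined with 500 µmol/L unlabeled ketanserin. Ki was taken from dose-response curves, with Kd set for each membrane lot by Scatchard analysis.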

[2] = biological target: T2, human recombinant 5-HT2C receptor (Homo sapiens, UniProt P28335); experiment: Test Example 2: 5-HT2C receptor binding inhibition test ([3H]-Mesulergine; non-specific ligand Serotonin HCl); settings: human serotonin 5-HT2C receptor binding activity
T2 construct: expressed in transfected cells; host or cells: Jump-In HEK cells (membrane preparation)
T2 sequence (P28335 33-458): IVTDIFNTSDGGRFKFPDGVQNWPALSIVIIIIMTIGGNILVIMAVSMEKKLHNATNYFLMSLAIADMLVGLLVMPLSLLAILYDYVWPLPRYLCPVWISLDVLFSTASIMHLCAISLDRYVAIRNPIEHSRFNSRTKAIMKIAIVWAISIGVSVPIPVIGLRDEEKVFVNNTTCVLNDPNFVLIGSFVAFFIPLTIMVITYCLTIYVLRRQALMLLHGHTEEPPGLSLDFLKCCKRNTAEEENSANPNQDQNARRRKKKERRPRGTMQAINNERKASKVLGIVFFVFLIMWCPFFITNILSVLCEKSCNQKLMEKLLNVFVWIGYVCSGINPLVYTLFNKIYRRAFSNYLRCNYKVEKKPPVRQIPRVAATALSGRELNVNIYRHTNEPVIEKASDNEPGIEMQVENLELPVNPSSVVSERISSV
Method in brief: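 Filtration binding to membranes bearing human 5-HT2C with [3H]-mesulergine, 2 h at 37°C; non-specific binding defined with 500 µmol/L serotonin HCl, total binding with vehicle. Inhibition rate computed from cpm; Ki derived from dose-response curve, with ligand Kd from Scatchard analysis of saturation binding.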

| Ki [1] | Ki [2] | SMILES |
| --- | --- | --- |
| 2.19 nM | 59.1 nM | OCCOc1cnc(Nc2ncc(C(F)(F)F)cc2F)cc1-c1cccnc1C(F)F [Compound I-366] |
| 1.97 nM | 64.9 nM | CCc1ncccc1-c1cc(Nc2ncc(C(F)(F)F)cc2F)ncc1OCCO [Compound I-367] |
| 2.13 nM | 51.2 nM | O=C1NCc2c1cncc2-c1cc(Nc2ncc(C(F)(F)F)cc2F)ncc1OCCO [Compound I-368] |
| 1.72 nM | 58.2 nM | COC(=O)c1ccc(C)c(-c2cc(Nc3ncc(C(F)(F)F)cc3F)ncc2OCCO)c1 [Compound I-369] |
| 1.03 nM | 86.8 nM | COC(=O)c1ccc(-c2cc(Nc3ncc(C(F)(F)F)cc3F)ncc2OCCO)c(C)c1 [Compound I-370] |
| 2.37 nM | 61.5 nM | CNC(=O)c1cnc(C)c(-c2cc(Nc3ncc(C(F)(F)F)cc3F)ncc2OCCO)c1 [Compound I-371] |
| 0.847 nM | 9.14 nM | Cc1cc(CO)ccc1-c1cc(Nc2ncc(C(F)(F)F)cc2F)ncc1OCCO [Compound I-372] |
| 1.21 nM | 64.7 nM | Cc1ccc(CO)cc1-c1cc(Nc2ncc(C(F)(F)F)cc2F)ncc1OCCO [Compound I-373] |
| 0.955 nM | 1.8 nM | Cc1nc(COC2CC2)nc(C)c1-c1cc(Nc2ncc(C(F)(F)F)cc2Cl)ncc1OCCO [Compound I-374] |
| 1.27 nM | 1.57 nM | Cc1nc(COCC(F)F)nc(C)c1-c1cc(Nc2ncc(C(F)(F)F)cc2Cl)ncc1OCCO [Compound I-375] |
| 2.9 nM | 4.66 nM | Cc1nc(CO[C@H]2CCOC2)nc(C)c1-c1cc(Nc2ncc(C(F)(F)F)cc2Cl)ncc1OCCO [Compound I-377] |
| 1.13 nM | 0.791 nM | Cc1cnn(Cc2nc(C)c(-c3cc(Nc4ncc(C(F)(F)F)cc4Cl)ncc3OCCO)c(C)n2)c1 [Compound I-379] |
| 0.527 nM | 7.28 nM | COc1nc(C)nc(OC)c1-c1cc(Nc2ncc(C(F)(F)F)cc2Cl)ncc1OCCO [Compound I-380] |
| 2.66 nM | 3.58 nM | Cc1nc(COC2CCOCC2)nc(C)c1-c1cc(Nc2ncc(C(F)(F)F)cc2Cl)ncc1OCCO [Compound I-381] |
| 2.57 nM | 4.59 nM | Cc1nc(C)c(-c2nc(Nc3ccc(OC(F)(F)F)c(C)n3)c(F)cc2OCCO)c(C)n1 [Compound I-383] |
| 2.87 nM | 4.58 nM | Cc1nc(C)c(-c2nc(Nc3ccc(C(F)(F)F)c(C)n3)c(F)cc2OCCO)c(C)n1 [Compound I-384] |
| 0.226 nM | 5.08 nM | Cn1ncc(Cl)c1-c1nc(Nc2ccc(C(F)(F)F)cn2)c(F)cc1OCCO [Compound I-385] |
| 0.244 nM | 5.22 nM | Cn1ncc(Cl)c1-c1nc(Nc2ccc(OC(F)(F)F)cn2)c(F)cc1OCCO [Compound I-386] |
| 0.318 nM | 3.82 nM | Cn1ncc(Br)c1-c1nc(Nc2ccc(C(F)(F)F)cn2)c(Cl)cc1OCCO [Compound I-387] |
| 0.366 nM | 7.66 nM | Cn1ncc(Br)c1-c1nc(Nc2nc3ccc(F)cc3s2)c(F)cc1OCCO [Compound I-388] |
| 1.2 nM | 2.41 nM | Cc1nc(C)c(-c2cc(Nc3ncc(C(F)(F)F)cc3C)ncc2OCCO)c(C)n1 [Compound I-389] |

| Ki [1] | Ki [2] | SMILES |
| --- | --- | --- |
| 1.08 nM | 3.91 nM | Cc1nc(C)c(-c2cc(Nc3ncc(C(F)(F)F)cc3Cl)ncc2OCCO)c(C)n1 [Compound I-390] |
| 0.357 nM | 19 nM | CNC(=O)c1ccc(F)c(-c2cc(Nc3ncc(C(F)(F)F)cc3F)ncc2OCCO)c1 [Compound I-391] |
| 2.88 nM | 12.3 nM | Cc1nc(C)c(-c2cc(Nc3ncc(OC(F)(F)F)cc3F)ncc2O[C@H](C)CO)c(C)n1 [Compound I-392] |
| 17.6 nM | 78.9 nM | COCc1nc(C)c(-c2nc(Nc3cc(-c4ccccc4)no3)c(F)cc2OCCO)c(C)n1 [Compound I-393] |
| 1.34 nM | 2.16 nM | COCc1nc(C)c(-c2nc(Nc3ccc(C(F)(F)F)c(OC)n3)c(F)cc2OCCO)c(C)n1 [Compound I-394] |
| 3.37 nM | 1.84 nM | COCc1nc(C)c(-c2nc(Nc3ccc(OC(F)(F)F)c(C)n3)c(F)cc2OCCO)c(C)n1 [Compound I-395] |
| 9.96 nM | 17.2 nM | COCc1nc(C)c(-c2nc(Nc3ccc(C(F)(F)F)c(C#N)n3)c(F)cc2OCCO)c(C)n1 [Compound I-396] |
| 0.413 nM | 1.8 nM | Cn1ncc(Br)c1-c1cc(Nc2ncc(C(F)(F)F)cn2)c(Cl)cc1OCCO [Compound I-397] |
| 0.576 nM | 5.26 nM | Cn1ncc(Br)c1-c1cc(Nc2ncc(Cl)cn2)c(Cl)cc1OCCO [Compound I-398] |
| 0.347 nM | 0.86 nM | Cn1ncc(Br)c1-c1cc(Nc2ncc(C(F)(F)F)cc2F)c(Cl)cc1OCCO [Compound I-399] |
| 0.338 nM | 1.38 nM | Cn1ncc(Br)c1-c1cc(Nc2ccc(C(F)(F)F)cn2)c(Cl)cc1OCCO [Compound I-400] |
| 0.211 nM | 0.849 nM | Cn1ncc(Br)c1-c1cc(Nc2ccc(Cl)cn2)c(Cl)cc1OCCO [Compound I-401] |
| 0.533 nM | 11 nM | Cn1ncc(Br)c1-c1cc(Nc2ccc(C(F)(F)F)nn2)c(F)cc1OCCO [Compound I-402] |
| 0.565 nM | 29.9 nM | Cn1ncc(Br)c1-c1cc(Nc2ccc(C(F)F)nn2)c(F)cc1OCCO [Compound I-403] |
| 0.362 nM | 5.79 nM | Cn1ncc(Br)c1-c1cc(Nc2cnc(C(F)(F)F)cn2)c(F)cc1OCCO [Compound I-404] |
| 0.274 nM | 0.293 nM | Cn1ncc(Br)c1-c1cc(Nc2nc3ccc(F)cc3s2)c(F)cc1OCCO [Compound I-405] |
| 0.463 nM | 2.48 nM | Cn1ncc(Br)c1-c1cc(Nc2nc3ccc(F)cc3[nH]2)c(F)cc1OCCO [Compound I-406] |
| 0.225 nM | 3.64 nM | Cn1ncc(Br)c1-c1cc(Nc2cc(C(F)(F)F)ccn2)c(F)cc1OCCO [Compound I-407] |
| 0.384 nM | 1.89 nM | Cn1ncc(Br)c1-c1cc(Nc2nc3ccc(F)cc3s2)c(Cl)cc1OCCO [Compound I-408] |
| 0.42 nM | 2.12 nM | Cn1ncc(Cl)c1-c1cc(Nc2ncc(C(F)(F)F)cc2F)c(Cl)cc1OCCO [Compound I-409] |
| 0.573 nM | 3.94 nM | Cn1ncc(Cl)c1-c1cc(Nc2ncc(C(F)(F)F)cn2)c(Cl)cc1OCCO [Compound I-410] |
